Test results published in patent US8952002B2, “Aminoheteroaryl compounds and preparation method and use thereof” (Shanghai Allist Pharmaceuticals, Inc., priority 2012, dated 2015).

What was measured:
[1] = target: receptor tyrosine kinase c-Met (c-Met kinase domain recombination protein) (Homo sapiens (Human), UniProt P08581); assay: Enzyme linked immunosorbent assay (ELISA) of c-Met kinase activity; assay type: biochemical; details: for IC50: c-Met enzyme, ELISA, read-out: IC50 (nM) mean ± SD
Method: The evaluation of the inhibition of the compound of the present invention on the activity of c-Met enzyme in molecular level may be assayed by conventional methods, one preferable evaluation method of which is enzyme-linked immunosorbent assay (ELISA). By measuring the inhibition ratio of the compounds against the activity of receptor tyrosine kinase protein c-Met enzyme, the median inhibitory concentration IC50 is calculated based on the inhibition ratios for various concentrations using the four-parameter method. The inhibition ratio for a sample (%)=(1−(OD value of a compound−OD value of the control well without enzyme)/(OD value of the negative control well−OD value of the control well without enzyme))×100%
(1) The enzyme reaction substrate Poly(Glu, Tyr) 4:1 was diluted to 20 μg/mL, 1254/well coated enzyme label plate with potassium ion-free PBS (10 mM sodium phosphate buffer, 150 mM NaCl, pH7.2-7.4), which was placed at 37° C. to allow to react for 12-16 h. The liquid in the wells was discarded. The plate was washed with 200 μL/well of T-PBS (potassium ion-free PBS containing 0.1% Tween-20) for three times (each for 5 min). The enzyme label plate was placed into a drying oven at 37° C. to dry for 1-2 h.
(2) To each well was added 50 µL of ATP solution diluted with reaction buffer (50 mM HEPES pH 7.4, 50 mM MgCl2, 0.5 mM MnCl2, 0.2 mM Na3VO4, 1 mM DTT), and to each well was added 1 μL of the compounds. When adding the test compounds, 6 concentration gradients were set for each compound (the starting concentrations and dilution times were determined according to the results of preliminary screening so as to ensure that the maximum inhibition ratio was about 80% and the minimum inhibition ratio was about 20%, and more than two concentration points were in the vicinity of 50% inhibition ratio), and then 504 of c-Met kinase domain recombination protein diluted with reaction buffer was added to initiate the reaction. Two ATP-free control wells were needed for each of the experiments. The reaction was placed on a shaking table at 37° C. (100 rpm) for 1 h. The liquid in the wells was discarded and the plate was washed with T-PBS for three times.
(3) The antibody PY99 was added at 1004/well (the antibody was diluted with T-PBS containing BSA (5 mg/mL) in 1:500). The reaction was performed on a shaking table at 37° C. for 0.5 h. The liquid in the wells was discarded and the plate was washed with T-PBS for three times.
(4) The horseradish peroxidase-labeled goat anti-mouse secondary antibody was added at 100 μL/well (the antibody was diluted with T-PBS containing BSA (5 mg/mL) in 1:2000), The reaction was performed on a shaking table at 37° C. for 0.5 h. The liquid in the wells was discarded and the plate was washed with T-PBS for three times.
(5) 2 mg/ml of OPD colour developing solution (diluted with 0.1M citric acid-sodium citrate buffer (pH=5.4) containing 0.03% H2O2) was added at 1004/well, and the reaction was performed at 25° C. for 1-10 min under protection from light.
(6) 2M H2SO4 was added at 50 μL/well to terminate the reaction, and the values were read by a microplate reader VERSAmax with adjustable wavelength, wherein the wavelength was 490 nm. Through calculation, the inhibitory IC50 values of the compounds of Example 2, 12 and 13 against the activity of receptor tyrosine kinase c-Met enzyme were obtained as: […]

[2] = test system: human breast cancer cells (MDA-MB-231); assay: SRB proliferation assay, human breast cancer cells (MDA-MB-231); assay type: cell-based; details: MDA-MB-231, 72 hr, read-out: IC50 against MDA-MB-231 cells
Source text: (§1) The pharmacodynamic action of the compound of the present invention in terms of inhibiting the proliferation of cancer cells may be assayed by conventional methods, one preferable evaluation method of which is Sulforhodamine B (SRB) protein staining method, which calculates the inhibition ratio of a drug against the proliferation of cancer cells through measuring the change in optical absorption value generated after the drug has influenced the cancer cells. Inhibition ratio (%)=(OD control−OD inhibitor−OD blank)/(OD control−OD blank)×100%
OD control: the OD value of the well of normally grown cells without the action of a drug.
OD inhibitor: the OD value of the well of cells with the action of added compounds to be screened.
OD blank: the OD value of the well of parallel control without seeding cells.
(§2) The median inhibitory concentration (IC50) value is obtained by the software GraphPad Prism 5 through calculation.
(§3) The human breast cancer cells in the logarithmic phase were inoculated to 96-well culture plates (180 μl/well) at a density of about 5500/well. The well for each concentration was triplicated. Solvent control wells of corresponding concentrations and apoptosis-free wells were also established. […]

[3] = test system: human colon cancer cells (HT-29); assay: SRB proliferation assay, human colon cancer cells (HT-29); assay type: cell-based; details: HT-29, 72 hr, read-out: IC50 against HT-29 cells
Source text: as §1, §2
as §3, with “established. After adherent growth for 24 hr, the compounds of the present invention were added at 20 μl/well, and the cells were cultured for 72 hr under the conditions of 10% Hyclone fetal calf serum, 37° C., 5% CO2.” for “established.”
According to the experimental method of Test Example 1, the IC50 value of the compound of the present invention against HT-29 cells was calculated as: […]

[4] = test system: human lung cancer cells (H1975); assay: SRB proliferation assay, human lung cancer cells (H1975); assay type: cell-based; details: NCI-H1975, H1975, 72 hr, read-out: IC50 against H1975 cells
Source text: as §1, §2
as §3, with “established. After adherent growth for 24 hr, the compounds of the present invention were added at 20 μl/well, and the cells were cultured for 72 hr under the conditions of 10% Hyclone fetal calf serum, 37° C., 5% CO2.” for “established.”
According to the experimental method of Test Example 1, the IC50 value of the compound of the present invention against H1975 cells was calculated as: […]

c-Met receptor = c-Met receptor (Homo sapiens (Human), UniProt P08581); assay: Western blot test of c-Met phosphorylation in EGF-stimulated H1975 cells; assay type: cell-based; details: EGF induction, 1 μM and 5 μM, 6 hr
Method: The human lung cancer cells (H1975) in the logarithmic phase were inoculated to 6-well culture plates at a density of about 4×10^5/well. The cells were adherently grown for 24 hr. Four wells were selected, wherein two wells were added with the compound of Example 2 respectively (1 μM/well and 5 μM/well). The other two wells were not added with drugs. The cells were cultured for 6 hr under the conditions of 10% Hyclone fetal calf serum, 37° C., 5% CO2. EGF was added to the above two wells and one of the drug-free well to stimulate for 15 min. After the cells were washed with cold PBS, sample loading buffer (2×SDS Lysis Buffer+1M DTT+H2O) was added to lyse the cells. The lysate of the cells was heated for 10 min at 100° C., centrifuged for 5 min at 12000 g, and the supernatant was took out. The supernatant was subjected to SDS-PAGE electrophoretic analysis. At 25 mA constant current, after wetly transferred for 2 h, the proteins were transferred to PVDF (polyvinylidine difluoride) membrance. The PVDF membrance was took out, incubated with the corresponding primary antibody (pMet) at 4° C. overnight. […] After washing with TBST for 3 times, images were developed with ECL luminescence kit, and were mounted. […]

Chain of receptor tyrosine kinase c-Met (c-Met kinase domain recombination protein) (P08581 1078-1345): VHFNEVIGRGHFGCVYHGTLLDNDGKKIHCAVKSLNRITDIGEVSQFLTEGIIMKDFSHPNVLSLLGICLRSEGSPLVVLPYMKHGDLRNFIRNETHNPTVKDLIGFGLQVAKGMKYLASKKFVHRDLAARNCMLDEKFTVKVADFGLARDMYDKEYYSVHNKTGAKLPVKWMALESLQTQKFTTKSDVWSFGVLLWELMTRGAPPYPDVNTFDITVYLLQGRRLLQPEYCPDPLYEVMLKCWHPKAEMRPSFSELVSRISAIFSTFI
Chain of c-Met receptor (P08581 25-1390): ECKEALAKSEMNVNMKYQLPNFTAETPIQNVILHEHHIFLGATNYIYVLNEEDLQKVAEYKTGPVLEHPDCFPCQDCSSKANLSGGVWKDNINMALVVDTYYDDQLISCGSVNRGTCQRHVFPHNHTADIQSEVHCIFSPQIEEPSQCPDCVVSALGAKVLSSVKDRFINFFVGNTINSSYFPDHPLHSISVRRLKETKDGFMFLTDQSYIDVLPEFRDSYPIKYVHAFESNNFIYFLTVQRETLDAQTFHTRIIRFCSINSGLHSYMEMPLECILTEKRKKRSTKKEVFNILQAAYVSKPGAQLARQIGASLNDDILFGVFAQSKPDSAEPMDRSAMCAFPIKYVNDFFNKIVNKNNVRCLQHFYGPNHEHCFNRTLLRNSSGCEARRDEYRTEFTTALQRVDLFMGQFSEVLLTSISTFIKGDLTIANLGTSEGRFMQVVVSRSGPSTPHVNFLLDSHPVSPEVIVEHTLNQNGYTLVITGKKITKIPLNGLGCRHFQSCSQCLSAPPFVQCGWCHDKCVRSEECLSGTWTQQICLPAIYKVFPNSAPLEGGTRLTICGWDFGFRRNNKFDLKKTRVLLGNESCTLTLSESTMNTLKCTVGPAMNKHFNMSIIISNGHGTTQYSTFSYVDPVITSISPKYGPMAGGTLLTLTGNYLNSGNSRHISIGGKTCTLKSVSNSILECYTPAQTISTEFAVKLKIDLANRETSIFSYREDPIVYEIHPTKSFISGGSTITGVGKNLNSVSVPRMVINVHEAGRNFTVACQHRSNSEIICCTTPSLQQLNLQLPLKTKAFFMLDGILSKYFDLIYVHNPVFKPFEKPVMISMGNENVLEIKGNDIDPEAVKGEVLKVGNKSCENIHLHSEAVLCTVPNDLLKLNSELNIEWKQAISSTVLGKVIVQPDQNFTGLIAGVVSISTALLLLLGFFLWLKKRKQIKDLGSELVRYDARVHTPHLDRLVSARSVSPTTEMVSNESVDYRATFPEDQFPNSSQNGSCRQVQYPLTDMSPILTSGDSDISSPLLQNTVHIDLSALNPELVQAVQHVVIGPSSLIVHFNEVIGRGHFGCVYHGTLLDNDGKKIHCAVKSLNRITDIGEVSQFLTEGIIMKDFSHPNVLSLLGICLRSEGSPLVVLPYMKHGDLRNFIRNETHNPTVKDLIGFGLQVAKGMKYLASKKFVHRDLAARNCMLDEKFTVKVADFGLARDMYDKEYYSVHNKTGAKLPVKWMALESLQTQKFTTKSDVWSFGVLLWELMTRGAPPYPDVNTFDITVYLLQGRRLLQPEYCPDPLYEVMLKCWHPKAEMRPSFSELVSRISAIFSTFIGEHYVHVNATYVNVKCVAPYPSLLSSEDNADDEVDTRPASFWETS

Q: What does the source list for `C[C@@H](Oc1cc(-c2cn(C3CCNCC3)nn2)cnc1N)c1c(Cl)ccc(F)c1Cl` [Example 13, (R)-3-(1-(2,6-dichloro-3-fluorophenyl)ethoxy)-5-(1-(piperidin-4-yl)-1H-1,2,3-triazol-4-yl)-2-aminopyridine]?
A: Average inhibition ratio (%) ([1]; 0.8 nM): 31.1%; Average inhibition ratio (%) ([1]; 2 nM): 62.2%; Average inhibition ratio (%) ([1]; 7 nM): 67.7%; Average inhibition ratio (%) ([1]; 22 nM): 79.7%; Average inhibition ratio (%) ([1]; 66 nM): 88.0%; Average inhibition ratio (%) ([1]; 200 nM): 88.2%; IC50 [1]: 1.7 ± 0.4 nM

Q: Which results are given for `C[C@H](Oc1cc(-c2cn(C3CCNCC3)nn2)cnc1N)c1c(Cl)ccc(F)c1Cl` [Example 12]?
A: Average inhibition ratio (%) ([1]; 0.8 nM): 7.9%; Average inhibition ratio (%) ([1]; 2 nM): 18.2%; Average inhibition ratio (%) ([1]; 7 nM): 39.8%; Average inhibition ratio (%) ([1]; 22 nM): 61.7%; Average inhibition ratio (%) ([1]; 66 nM): 76.3%; Average inhibition ratio (%) ([1]; 200 nM): 77.5%; IC50 [1]: 11.7 ± 2.3 nM

Q: How did the IC50 [2] turn out when `CC(Oc1cc(-c2cn(C3CCNCC3)nn2)cnc1N)c1c(Cl)ccc(F)c1Cl` (stereo not shown) [Example 2, 3-(1-(2,6-dichloro-3-fluorophenyl)ethoxy)-5-(1-(piperidin-4-yl)-1H-1,2,3-triazol-4-yl)-2-aminopyridine] was run?
A: The IC50 was 9530 nM.

Q: What about the IC50 [3] of the same compound?
A: The IC50 was 5260 nM.

Q: And the IC50 [4]?
A: Its IC50 is 11700 nM.

Q: What about the “inhibition of the phosphorylation of c-Met receptor” value (c-Met receptor) of the same compound?
A: Its value is “effectively inhibit”.

Q: What about the “Average inhibition ratio (%)” value ([1]; 0.8 nM) of the same compound?
A: The value was 8.4%.

Q: What about the “Average inhibition ratio (%)” value ([1]; 2 nM) of the same compound?
A: Its value is 26.9%.

Q: And the “Average inhibition ratio (%)” value ([1]; 7 nM)?
A: Its value is 51.0%.

Q: What about the “Average inhibition ratio (%)” value ([1]; 22 nM) of the same compound?
A: Its value is 69.9%.

Q: And the “Average inhibition ratio (%)” value ([1]; 66 nM)?
A: Its value is 76.8%.

Q: What about the “Average inhibition ratio (%)” value ([1]; 200 nM) of the same compound?
A: The value was 78.0%.

Q: And the IC50 [1]?
A: The IC50 was 6.7 ± 2.3 nM.
